Results reported in the supplement of paper PMC10331698.
± gives the standard deviation of the averaged measurements.

Assays:
Assay in all cases: level (log10 ratio to DMSO vehicle control); higher = higher biomarker level / cell amount than vehicle control
Conditions in all cases: in DMSO
[1] = compound: CCCCCCCCC(F)(F)C(F)(F)C(F)(F)C(F)(F)C(F)(F)C(F)(F)F [1-(Perfluorohexyl)octane]
Protocol: (§1)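 BioMAP Diversity Plus panel of 12 human primary cell co-culture systems (3C, 4H, LPS, SAg, BT, BF4T, BE3C, CASM3C, HDF3CGF, KF3CT, MyoF, Mphg). Compounds were added 1 h before stimulation and left for 24 h (MyoF 48 h; BT 72 h for soluble read-outs or 6 d for IgG). Biomarkers were read by ELISA, cytotoxicity by SRB, PBMC viability and proliferation by Alamar Blue. Each well value was divided by the mean of 8 DMSO control wells on the same plate and log10 transformed; duplicate blinded samples were tested at 4 concentrations.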

[2] = compound: CNS(=O)(=O)C(F)(F)C(F)(F)C(F)(F)C(F)(F)C(F)(F)C(F)(F)C(F)(F)C(F)(F)F [N-Methylperfluorooctanesulfonamide]
Protocol: as §1

[3] = compound: O=C(O)C(F)(F)C(F)(F)C(F)(F)C(F)(F)C(F)(F)C(F)(F)C(F)(F)C(F)(F)C(F)(F)C(F)(F)C(F)(F)C(F)(F)C(F)(F)F [Perfluorotetradecanoic acid]
Protocol: as §1

[4] = compound: O=C(O)C(F)(F)C(F)(F)C(F)(F)C(F)(F)C(F)(F)C(F)(F)C(F)(F)C(F)(F)C(F)(F)C(F)(F)C(F)(F)C(F)(F)F [Perfluorotridecanoic acid]
Protocol: as §1

[5] = compound: O=C(O)C(F)(F)C(F)(F)C(F)(F)C(F)(F)C(F)(F)F [Perfluorohexanoic acid]
Protocol: as §1

[6] = compound: O=C(O)C(F)(F)OC(F)(F)C(F)(F)OC(F)(F)C(F)(F)C(F)(F)C(F)(F)F [Perfluoro-3,6-dioxadecanoic acid]
Protocol: as §1

[7] = compound: O=C(O)CCC(F)(F)C(F)(F)C(F)(F)C(F)(F)C(F)(F)F [2H,2H,3H,3H-Perfluorooctanoic acid]
Protocol: as §1

| Test System | level (log10) ([1]; 6700 nM) | level (log10) ([1]; 20000 nM) | level (log10) ([2]; 6700 nM) | level (log10) ([2]; 20000 nM) | level (log10) ([2]; 60000 nM) | level (log10) ([3]; 6700 nM) | level (log10) ([3]; 20000 nM) | level (log10) ([4]; 1500 nM) | level (log10) ([4]; 4400 nM) | level (log10) ([4]; 13000 nM) | level (log10) ([4]; 40000 nM) | level (log10) ([5]; 6700 nM) | level (log10) ([5]; 20000 nM) | level (log10) ([5]; 60000 nM) | level (log10) ([6]; 6700 nM) | level (log10) ([6]; 20000 nM) | level (log10) ([6]; 60000 nM) | level (log10) ([7]; 6700 nM) | level (log10) ([7]; 20000 nM) | level (log10) ([7]; 60000 nM) |
| --- | --- | --- | --- | --- | --- | --- | --- | --- | --- | --- | --- | --- | --- | --- | --- | --- | --- | --- | --- | --- |
| SAg:Proliferation | 0.0125 ± 0.04 | 0.0675 ± 0.03 | -0.0295 ± 0.026 | -0.0755 ± 0.0092 | -0.048 ± 0.1 | -0.038 ± 0.045 | -0.014 ± 0.025 | -0.019 ± 0.047 | -0.0125 ± 0.005 | -0.066 ± 0.023 | -0.036 ± 0.031 | 0.0065 ± 0.011 | 0.003 ± 0.021 | 0.027 ± 0.0042 | -0.007 ± 0.03 | 0.023 ± 0.033 | 0.0095 ± 0.043 | -0.011 ± 0.017 | -0.0475 ± 0.067 | -0.115 |
| LPS:CXCL8/IL-8 | 0.0335 ± 0.00071 | 0.0405 ± 0.026 | -0.007 ± 0.0085 | -0.003 ± 0.016 | -0.0025 ± 0.019 | 0.0125 ± 0.077 | 0.0255 ± 0.16 | -0.011 ± 0.041 | -0.058 ± 0.041 | -0.0065 ± 0.042 | 0.016 ± 0.11 | 0.0035 ± 0.016 | 0.011 ± 0.0028 | 0.0575 ± 0.0035 | -0.0175 ± 0.0092 | -0.0145 ± 0.013 | 0.018 ± 0.02 | 0.054 ± 0.034 | 0.0715 ± 0.09 | 0.121 ± 0.11 |
| LPS:CD69 | -0.012 ± 0.061 | 0.007 ± 0.038 | -0.068 ± 0.016 | -0.0725 ± 0.0092 | -0.0725 ± 0.0035 | -0.012 ± 0.025 | -0.027 ± 0.068 | 0.002 ± 0.034 | -0.0545 ± 0.053 | -0.0455 ± 0.044 | -0.069 ± 0.025 | 0.0025 ± 0.0078 | -0.0165 ± 0.0021 | -0.0295 ± 0.013 | -0.009 ± 0.0099 | -0.0425 ± 0.026 | -0.191 ± 0.088 | -0.0475 ± 0.084 | -0.076 ± 0.052 | -0.135 ± 0.051 |
| LPS:sTNF-alpha | 0.0005 ± 0.0064 | -0.0015 ± 0.013 | 0.0045 ± 0.073 | -0.012 ± 0.1 | 0.0085 ± 0.13 | -0.009 ± 0.037 | 0.003 ± 0.018 | -0.0185 ± 0.0092 | -0.016 ± 0.018 | -0.0375 ± 0.025 | -0.0485 ± 0.021 | -0.009 ± 0.0014 | -0.0005 ± 0.021 | -0.0515 ± 0.0021 | 0.012 ± 0.011 | 0.0155 ± 0.018 | 0.0135 ± 0.015 | -0.017 ± 0.0014 | -0.0165 ± 0.005 | -0.014 ± 0.0085 |
| BT:sTNF-alpha | 0.0415 ± 0.028 | 0.126 ± 0.16 | -0.017 ± 0.055 | 0.0015 ± 0.022 | -0.0905 ± 0.29 | 0.014 ± 0.11 | -0.082 ± 0.092 | 0.0475 ± 0.064 | 0.0075 ± 0.033 | -0.054 ± 0.096 | -0.05 ± 0.067 | -0.036 ± 0.05 | -0.023 ± 0.081 | -0.01 ± 0.11 | 0.0675 ± 0.086 | 0.0875 ± 0.08 | -0.046 ± 0.051 | -0.0085 ± 0.0035 | -0.0055 ± 0.074 | 0.005 ± 0.037 |
| 3C:Proliferation | -0.0125 ± 0.06 | -0.0035 ± 0.012 | -0.024 ± 0.02 | -0.125 ± 0.041 | -0.338 ± 0.16 | -0.306 ± 0.046 | -0.329 ± 0.15 | -0.056 ± 0.048 | -0.025 ± 0.0085 | -0.348 ± 0.38 | -0.811 ± 0.1 | -0.0055 ± 0.012 | -0.006 ± 0.0028 | -0.01 ± 0.04 | -0.0105 ± 0.0035 | 0.0325 ± 0.022 | -0.369 ± 0.13 | -0.0415 ± 0.022 | -0.038 ± 0.033 | -0.007 ± 0.0014 |
| BF4T:SRB | -0.0045 ± 0.0035 | -0.0035 ± 0.0035 | -0.016 ± 0.0071 | -0.021 ± 0.0042 | -0.0115 ± 0.013 | 0.0025 ± 0.0092 | 0.001 ± 0.0071 | 0.009 ± 0.0042 | -0.0045 ± 0.005 | 0.0025 ± 0.011 | 0.008 ± 0.013 | -0.0025 ± 0.00071 | -0.0095 ± 0.0092 | 0.0105 ± 0.0064 | -0.024 ± 0.0014 | -0.023 ± 0.0057 | -0.053 ± 0.0085 | -0.0005 ± 0.0078 | -0.003 ± 0.013 | -0.005 ± 0.0028 |
| LPS:CD141/Thrombomodulin | -0.0215 ± 0.0021 | 0.0025 ± 0.023 | 0.005 ± 0.0028 | 0.0475 ± 0.0092 | 0.056 ± 0.0014 | 0.009 ± 0.1 | -0.002 ± 0.072 | 0.045 ± 0.016 | 0.0125 ± 0.0092 | 0.0335 ± 0.0035 | -0.001 ± 0.016 | 0.0085 ± 0.012 | 0.0065 ± 0.026 | 0.007 ± 0.017 | 0.0245 ± 0.025 | 0.001 ± 0.04 | -0.0235 ± 0.0078 | 0.0745 ± 0.043 | 0.048 ± 0.089 | 0.009 ± 0.088 |
| LPS:CD142/Tissue Factor | -0.006 ± 0.088 | 0.003 ± 0.083 | -0.0275 ± 0.016 | -0.0395 ± 0.016 | -0.074 ± 0.018 | 0.0225 ± 0.04 | 0.0025 ± 0.098 | 0.0325 ± 0.08 | -0.026 ± 0.058 | 0.0025 ± 0.069 | 0.0325 ± 0.019 | 0.0205 ± 0.021 | 0.0045 ± 0.011 | 0.015 ± 0.0071 | 0.031 ± 0.054 | -0.029 ± 0.03 | -0.0375 ± 0.083 | 0.0725 ± 0.018 | 0.063 ± 0.0028 | 0.0265 ± 0.037 |
| LPS:SRB | 0.0035 ± 0.0078 | 0.0035 ± 0.011 | -0.0005 ± 0.00071 | -0.03 ± 0.0042 | -0.0625 ± 0.039 | -0.011 ± 0.0042 | -0.0055 ± 0.018 | -0.003 ± 0.014 | -0.011 ± 0.0014 | -0.008 ± 0.011 | 0.006 ± 0.021 | -0.013 ± 0.0071 | -0.009 | -0.0065 ± 0.0078 | -0.01 ± 0.014 | -0.0025 ± 0.005 | -0.105 ± 0.069 | -0.01 ± 0.0014 | -0.0115 ± 0.0035 | -0.0035 ± 0.0064 |
| BF4T:MMP-1 | -0.0155 ± 0.035 | 0.0075 ± 0.052 | 0.012 ± 0.02 | 0.0105 ± 0.015 | -0.0105 ± 0.044 | 0.0015 ± 0.00071 | 0.013 ± 0.0028 | 0 ± 0.025 | -0.005 ± 0.0057 | -0.0015 ± 0.013 | 0.0045 ± 0.00071 | 0.0005 ± 0.015 | -0.009 ± 0.0071 | -0.0005 ± 0.0078 | -0.046 ± 0.013 | 0.01 ± 0.037 | 0.0625 ± 0.015 | -0.003 ± 0.0042 | 0.001 ± 0.023 | 0.005 ± 0.021 |
| BF4T:CCL26/Eotaxin-3 | 0.015 ± 0.051 | 0.0015 ± 0.054 | -0.203 ± 0.005 | -0.199 ± 0.015 | -0.196 ± 0.047 | -0.074 ± 0.0057 | -0.057 ± 0.059 | -0.0035 ± 0.052 | -0.0725 ± 0.022 | -0.089 ± 0.04 | -0.0555 ± 0.026 | 0.0135 ± 0.015 | 0.005 ± 0.024 | 0.0115 ± 0.011 | -0.241 ± 0.012 | -0.23 ± 0.018 | -0.231 ± 0.046 | -0.0305 ± 0.013 | -0.0615 ± 0.029 | -0.0695 ± 0.11 |
| 3C:HLA-DR | 0.028 ± 0.03 | 0.0205 ± 0.019 | -0.0605 ± 0.012 | -0.102 ± 0.016 | -0.072 ± 0.028 | -0.028 ± 0.03 | 0.0025 ± 0.037 | -0.011 ± 0.0028 | -0.0135 ± 0.011 | -0.021 ± 0.02 | -0.0095 ± 0.011 | 0.002 ± 0.0042 | 0.004 ± 0.014 | -0.002 ± 0.0085 | 0.0345 ± 0.04 | 0.021 ± 0.044 | 0.016 ± 0.071 | -0.0085 ± 0.00071 | -0.019 ± 0.023 | -0.001 ± 0.0071 |
| SAg:CD40 | -0.0275 ± 0.00071 | -0.017 ± 0.016 | -0.016 ± 0.02 | -0.0415 ± 0.012 | -0.0695 ± 0.025 | -0.0395 ± 0.069 | -0.081 ± 0.085 | -0.021 ± 0.017 | -0.071 ± 0.0057 | -0.0705 ± 0.06 | -0.497 ± 0.044 | 0.0065 ± 0.016 | -0.0145 ± 0.012 | -0.0095 ± 0.021 | 0.003 ± 0.0028 | -0.0195 ± 0.016 | -0.08 ± 0.052 | -0.0325 ± 0.054 | -0.025 ± 0.052 | -0.034 ± 0.048 |
